Test results taken from ChEMBL document CHEMBL5260802, “Discovery of Novel Allosteric HCV NS5B Inhibitors. 2. Lactam-Containing Thiophene Carboxylates” (ACS Med Chem Lett, 2017).

Key:
Hepatitis C virus [1] = assay: Antiviral activity against Hepatitis C virus subtype 1b infected in Huh-7 cells transfected with HCV subgenomic replicon for NS5B polymerase assessed as inhibition of viral replication measured upto 96 hrs by luciferase reporter gene assay; type: functional, organism-based, Hepacivirus hominis; settings: for IC50: Huh-7, 96 h; for IC90: Huh-7, time <= 96 hrs
Hepatitis C virus [2] = assay: Antiviral activity against Hepatitis C virus subtype 1b infected in Huh-7 cells transfected with HCV subgenomic replicon for NS5B polymerase assessed as inhibition of viral replication measured upto 96 hrs in presence of 40% of human serum by luciferase reporter gene assay; type: functional, organism-based, Hepacivirus hominis; settings: Huh-7, 96 h
[3] = Cytotoxicity against human Huh-7 cells transfected with HCV subgenomic replicon for NS5B polymerase assessed as reduction in cell viability; type: toxicity, cell-based
[4] = Unbound clearance in Sprague-Dawley rat at 0.5 mg/kg,iv and measured after 72 hrs by LC/MS/MS analysis; type: ADME, organism-based; settings: in vivo
[5] = AUC (0 to infinity) in Sprague-Dawley rat at 0.5 mg/kg,iv and measured after 72 hrs by LC/MS/MS analysis; type: ADME, organism-based; parameters: time 72 hrs, dose 0.5 mg/kg, route iv; settings: in vivo
[6] = Oral bioavailability in Sprague-Dawley rat at 1.5 mg/kg and measured after 72 hrs by LC/MS/MS analysis; type: ADME, organism-based; settings: in vivo
[7] = target: T1, Nuclear receptor subfamily 1 group I member 2 (Homo sapiens, UniProt O75469); assay: Activation of human PXR expressed in human DPX2 co-expressing luciferase reporter gene incubated for 24 hrs by luciferase assay; type: cell-based
T1 sequence (O75469 whole entry): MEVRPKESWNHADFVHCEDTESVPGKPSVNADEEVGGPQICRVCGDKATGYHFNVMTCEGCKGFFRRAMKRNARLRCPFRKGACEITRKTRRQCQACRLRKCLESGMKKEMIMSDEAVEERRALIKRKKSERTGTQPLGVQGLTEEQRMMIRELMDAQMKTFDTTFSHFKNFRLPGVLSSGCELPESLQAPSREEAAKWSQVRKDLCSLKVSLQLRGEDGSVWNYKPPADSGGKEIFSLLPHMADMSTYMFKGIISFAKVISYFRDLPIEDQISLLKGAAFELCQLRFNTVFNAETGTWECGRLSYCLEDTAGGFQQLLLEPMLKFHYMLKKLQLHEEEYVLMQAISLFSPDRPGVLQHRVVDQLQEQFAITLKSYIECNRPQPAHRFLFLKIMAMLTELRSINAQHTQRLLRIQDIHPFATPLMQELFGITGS

PXR [8] = target: T2, PXR (Homo sapiens, UniProt O75469); assay: Activation of human PXR expressed in human DPX2 co-expressing luciferase reporter gene assessed as maximum efficacy incubated for 24 hrs by luciferase assay relative to control; type: cell-based; settings: DPX2 cells expressing human PXR and luciferase reporter gene
T2 sequence (O75469 whole entry): T1 sequence (O75469 whole entry)

[9] = Protein binding in rat plasma at 1 uM incubated for 6 hrs by LC-MS/MS based rapid equilibrium dialysis method; type: ADME, cell-free; settings: read-out: PPB (converted)
[10] = Unbound AUC (0 to infinity) in Sprague-Dawley rat at 0.5 mg/kg,iv and measured after 72 hrs by LC/MS/MS analysis; type: ADME, organism-based; settings: in vivo
[11] = Half life in Sprague-Dawley rat at 0.5 mg/kg,iv and measured after 72 hrs by LC/MS/MS analysis; type: ADME, organism-based; settings: in vivo
PXR [12] = target: T2, PXR; assay: Activation of human PXR expressed in human DPX2 co-expressing luciferase reporter gene assessed as fold increase incubated for 24 hrs by luciferase assay relative to control; type: cell-based; settings: DPX2 cells expressing human PXR and luciferase reporter gene, read-out: FC
[13] = Cmax in Sprague-Dawley rat at 1.5 mg/kg,po and measured after 72 hrs by LC/MS/MS analysis; type: ADME, organism-based; parameters: dose 1.5 mg/kg, time 72 hrs, route po; settings: in vivo
[14] = Volume of distribution at steady state in Sprague-Dawley rat at 0.5 mg/kg,iv and measured after 72 hrs by LC/MS/MS analysis; type: ADME, organism-based; settings: in vivo, read-out: Vdss
[15] = AUC (0 to infinity) in Sprague-Dawley rat at 1.5 mg/kg,po and measured after 72 hrs by LC/MS/MS analysis; type: ADME, organism-based; parameters: dose 1.5 mg/kg, time 72 hrs, route po; settings: in vivo
[16] = Half life in Sprague-Dawley rat at 1.5 mg/kg,po and measured after 72 hrs by LC/MS/MS analysis; type: ADME, organism-based; settings: in vivo
[17] = Unbound AUC (0 to infinity) in Sprague-Dawley rat at 1.5 mg/kg,po and measured after 72 hrs by LC/MS/MS analysis; type: ADME, organism-based; settings: in vivo
[18] = Unbound AUC (0 to infinity) in Sprague-Dawley rat at 3 mg/kg,po and measured after 72 hrs by LC/MS/MS analysis; type: ADME, organism-based; settings: in vivo
[19] = Half life in Sprague-Dawley rat at 1 mg/kg,iv and measured after 72 hrs by LC/MS/MS analysis; type: ADME, organism-based; settings: in vivo
[20] = Unbound clearance in Sprague-Dawley rat at 1 mg/kg,iv and measured after 72 hrs by LC/MS/MS analysis; type: ADME, organism-based; settings: in vivo
[21] = Volume of distribution at steady state in Sprague-Dawley rat at 1 mg/kg,iv and measured after 72 hrs by LC/MS/MS analysis; type: ADME, organism-based; settings: in vivo, read-out: Vdss
[22] = Clearance in Sprague-Dawley rat at 1 mg/kg,iv and measured after 72 hrs by LC/MS/MS analysis; type: ADME, organism-based; settings: in vivo
[23] = Unbound AUC (0 to infinity) in Sprague-Dawley rat at 1 mg/kg,iv and measured after 72 hrs by LC/MS/MS analysis; type: ADME, organism-based; settings: in vivo
[24] = Half life in Sprague-Dawley rat at 3 mg/kg,po and measured after 72 hrs by LC/MS/MS analysis; type: ADME, organism-based; settings: in vivo
[25] = AUC (0 to infinity) in Sprague-Dawley rat at 1 mg/kg,iv and measured after 72 hrs by LC/MS/MS analysis; type: ADME, organism-based; parameters: time 72 hrs, dose 1 mg/kg, route iv; settings: in vivo; for AUC(0-inf): Sprague-Dawley
[26] = Oral bioavailability in Sprague-Dawley rat at 3 mg/kg and measured after 72 hrs by LC/MS/MS analysis; type: ADME, organism-based; settings: in vivo
[27] = AUC (0 to infinity) in Sprague-Dawley rat at 3 mg/kg,po and measured after 72 hrs by LC/MS/MS analysis; type: ADME, organism-based; parameters: time 72 hrs, dose 3 mg/kg, route po; settings: in vivo
[28] = Cmax in Sprague-Dawley rat at 3 mg/kg,po and measured after 72 hrs by LC/MS/MS analysis; type: ADME, organism-based; parameters: time 72 hrs, dose 3 mg/kg, route po; settings: in vivo
Cytochrome P450 2C9 = Cytochrome P450 2C9 (Homo sapiens, UniProt P11712); assay: Inhibition of CYP2C9 in human liver microsomes incubated for 10 mins in presence of NADPH by LC/MS/MS analysis; type: ADME, Microsome
Cytochrome P450 2C9, sequence (P11712 whole entry): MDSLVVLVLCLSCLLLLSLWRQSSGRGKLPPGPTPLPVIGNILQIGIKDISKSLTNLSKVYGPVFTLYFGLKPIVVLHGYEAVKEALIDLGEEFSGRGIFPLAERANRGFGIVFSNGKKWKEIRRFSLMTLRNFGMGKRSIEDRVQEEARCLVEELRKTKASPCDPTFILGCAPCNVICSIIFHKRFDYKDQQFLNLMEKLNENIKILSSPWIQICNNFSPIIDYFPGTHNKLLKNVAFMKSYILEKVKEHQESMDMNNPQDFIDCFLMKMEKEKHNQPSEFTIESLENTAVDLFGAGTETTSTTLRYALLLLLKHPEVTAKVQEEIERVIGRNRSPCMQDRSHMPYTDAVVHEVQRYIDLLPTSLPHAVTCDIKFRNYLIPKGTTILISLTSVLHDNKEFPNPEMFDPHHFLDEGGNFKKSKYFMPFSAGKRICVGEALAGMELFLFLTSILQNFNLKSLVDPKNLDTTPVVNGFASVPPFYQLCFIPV

[29] = Microsomal stability in rat liver microsomes assessed as parent compound remaining at 1 uM and measured after 30 mins in presence of NADPH by LC/MS/MS analysis; type: ADME, Microsome; settings: 0.5 h
Cytochrome P450 3A4 = Cytochrome P450 3A4 (Homo sapiens, UniProt P08684); assay: Inhibition of CYP3A4 in human liver microsomes incubated for 10 mins in presence of NADPH by LC/MS/MS analysis; type: ADME, Microsome
Cytochrome P450 3A4, sequence (P08684 whole entry): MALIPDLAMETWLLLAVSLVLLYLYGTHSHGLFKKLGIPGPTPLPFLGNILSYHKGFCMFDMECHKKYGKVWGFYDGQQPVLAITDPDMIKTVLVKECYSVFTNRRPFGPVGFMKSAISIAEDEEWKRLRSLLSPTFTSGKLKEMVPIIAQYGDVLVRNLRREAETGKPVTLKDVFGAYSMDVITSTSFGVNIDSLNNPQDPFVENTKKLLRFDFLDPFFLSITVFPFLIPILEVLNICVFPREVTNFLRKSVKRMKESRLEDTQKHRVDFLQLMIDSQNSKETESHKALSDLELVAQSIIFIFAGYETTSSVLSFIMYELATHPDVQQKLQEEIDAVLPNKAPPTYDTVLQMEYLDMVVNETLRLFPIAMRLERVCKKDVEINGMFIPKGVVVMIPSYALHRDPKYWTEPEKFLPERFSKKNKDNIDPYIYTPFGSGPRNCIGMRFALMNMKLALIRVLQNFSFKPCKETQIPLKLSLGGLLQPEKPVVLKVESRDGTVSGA

Cytochrome P450 2D6 = Cytochrome P450 2D6 (Homo sapiens, UniProt P10635); assay: Inhibition of CYP2D6 in human liver microsomes incubated for 10 mins in presence of NADPH by LC/MS/MS analysis; type: ADME, Microsome
Cytochrome P450 2D6, sequence (P10635 whole entry): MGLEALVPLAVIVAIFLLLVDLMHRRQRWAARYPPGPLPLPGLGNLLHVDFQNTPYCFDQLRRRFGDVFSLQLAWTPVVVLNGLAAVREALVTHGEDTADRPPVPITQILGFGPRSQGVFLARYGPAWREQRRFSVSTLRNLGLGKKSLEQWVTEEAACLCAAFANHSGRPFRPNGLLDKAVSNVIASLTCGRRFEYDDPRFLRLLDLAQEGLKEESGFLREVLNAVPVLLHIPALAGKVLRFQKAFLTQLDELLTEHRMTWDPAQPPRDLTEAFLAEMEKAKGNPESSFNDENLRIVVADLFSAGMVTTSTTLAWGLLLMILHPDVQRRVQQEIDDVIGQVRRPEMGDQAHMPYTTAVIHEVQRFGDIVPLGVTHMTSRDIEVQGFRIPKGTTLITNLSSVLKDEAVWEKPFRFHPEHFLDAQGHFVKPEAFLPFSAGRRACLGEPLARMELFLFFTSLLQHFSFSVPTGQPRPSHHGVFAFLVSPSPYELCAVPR

[30] = Microsomal stability in human liver microsomes assessed as parent compound remaining at 1 uM and measured after 30 mins in presence of NADPH by LC/MS/MS analysis; type: ADME, Microsome; settings: 0.5 h
[31] = Protein binding in human plasma at 1 uM incubated for 6 hrs by LC-MS/MS based rapid equilibrium dialysis method; type: ADME, cell-free; settings: read-out: PPB

Structure (SMILES)	IC50 (Hepatitis C virus [1])	IC90 (Hepatitis C virus [1])	IC50 (Hepatitis C virus [2])	CC50 [3]	EC50 [7]	Emax at 24 h (PXR [8])	fraction unbound at 6 h, 1 µM [9]	fAUC [18]	half-life [19]	CL free [20]	Vd [21]	fAUC [23]	bioavailability [26]	AUC(0-inf) [27]	Cmax [28]	other results
C[C@H](C(=O)N(C)C)N(c1cc(C#CC(C)(C)C)sc1C(=O)O)C(=O)[C@H]1CC[C@H](C)CC1	110 nM	610 nM	1320 nM	> 20000 nM	–	–	–	–	–	–	–	–	–	–	–	–
CC(C)(C)C#Cc1cc(N(C(=O)[C@H]2CC[C@H](C)CC2)[C@H]2CC[C@H](O)CC2)c(C(=O)O)s1 [LOMIBUVIR]	25 nM	97 nM	203 nM	> 20000 nM	–	–	–	–	–	–	–	–	–	–	–	–
CN1CCC[C@@H](N(c2cc(C#CC(C)(C)C)sc2C(=O)O)C(=O)[C@H]2CC[C@H](C)CC2)C1=O	10 nM	44 nM	105 nM	> 20000 nM	20400 nM	28%	0.0004	–	–	–	–	–	–	–	–	CL free [4]: 2980 mL/min/kg; AUC [5]: 25400 ng·h/mL; bioavailability [6]: 32%; fAUC [10]: 10.2 ng·h/mL; half-life [11]: 5.57 h; fold induction at 24 h (PXR [12]): 7.3; Cmax [13]: 2540 ng/mL; Vd [14]: 0.221 L/kg; AUC(0-inf) [15]: 24400 ng·h/mL; half-life [16]: 6.13 h; fAUC [17]: 9.76 ng·h/mL
CN1CCCC[C@@H](N(c2cc(C#CC(C)(C)C)sc2C(=O)O)C(=O)[C@H]2CC[C@H](C)CC2)C1=O	29 nM	63 nM	156 nM	> 20000 nM	> 30000 nM	16%	0.002	7.06 ng·h/mL	2.79 h	7950 mL/min/kg	1.05 L/kg	2.26 ng·h/mL	122%	3530 ng·h/mL	589 ng/mL	clearance [22]: 15.9 mL/min/kg; half-life [24]: 4.31 h; AUC(0-inf) [25]: 1130 ng·h/mL
CC(C)(C)C#Cc1cc(N(CC(=O)N2CCOCC2)C(=O)[C@H]2CC[C@H](C)CC2)c(C(=O)O)s1	23 nM	100 nM	340 nM	> 20000 nM	–	–	–	–	–	–	–	–	–	–	–	–
C[C@@H](C(=O)N(C)C)N(c1cc(C#CC(C)(C)C)sc1C(=O)O)C(=O)[C@H]1CC[C@H](C)CC1	5 nM	24 nM	49 nM	> 20000 nM	–	–	–	–	–	–	–	–	–	–	–	–
CN1CC[C@H](N(c2cc(C#CC(C)(C)C)sc2C(=O)O)C(=O)[C@H]2CC[C@H](C)CC2)C1=O	4 nM	13 nM	40 nM	> 20000 nM	–	–	0.019	3.34 ng·h/mL	3.07 h	3880 mL/min/kg	6.04 L/kg	4.35 ng·h/mL	26%	176 ng·h/mL	119 ng/mL	clearance [22]: 73.7 mL/min/kg; half-life [24]: 4.66 h; AUC(0-inf) [25]: 229 ng·h/mL
CN1CC[C@@H](N(c2cc(C#CC(C)(C)C)sc2C(=O)O)C(=O)[C@H]2CC[C@H](C)CC2)C1=O	16 nM	96 nM	140 nM	> 20000 nM	–	–	0.002	6.64 ng·h/mL	2.73 h	11300 mL/min/kg	1.93 L/kg	3.48 ng·h/mL	64%	3320 ng·h/mL	1310 ng/mL	AUC ([25]; 72 h): 1740 ng·h/mL
CN1CCC[C@H](N(c2cc(C#CC(C)(C)C)sc2C(=O)O)C(=O)[C@H]2CC[C@H](C)CC2)C1=O	3 nM	8 nM	24 nM	> 20000 nM	17300 nM	63%	0.011	–	–	–	–	–	–	–	–	IC50 (Cytochrome P450 2C9): > 30000 nM; Stability [29]: Stable; CL free [4]: 755 mL/min/kg; AUC [5]: 8770 ng·h/mL; bioavailability [6]: 24%; IC50 (Cytochrome P450 3A4): > 30000 nM; IC50 (Cytochrome P450 2D6): > 30000 nM; fAUC [10]: 96.5 ng·h/mL; half-life [11]: 6.68 h; Stability [30]: Stable; fold induction at 24 h (PXR [12]): 15.1; fraction unbound at 6 h, 1 µM [31]: 0.01; Cmax [13]: 751 ng/mL; Vd [14]: 1.17 L/kg; AUC(0-inf) [15]: 6390 ng·h/mL; half-life [16]: 4.8 h; fAUC [17]: 70.3 ng·h/mL
